*1 amine or outer side, *2 acyl side, *3 side chain or, on linkers, in order; H or OH if unused. Where a SMILES comes first, the peptide text is derived from it. Bridges are numbered along the chain shown (N, C = ends). [ ]: non-standard residue; d: D form. The star is where a group is joined. hPhe(3,5-F2-4-CF3) = N[C@@H](CCc1cc(F)c(C(F)(F)F)c(F)c1)C(=O)O; hPhe(3-Cl-4-CF3) = N[C@@H](CCc1ccc(C(F)(F)F)c(Cl)c1)C(=O)O; NPrPhe(4-CF3) = CCCN[C@@H](Cc1ccc(C(F)(F)F)cc1)C(=O)O; X43 = Cc1ccc(C[C@@H](C(=O)[*:2])N(CC2CCC2)[*:1])cc1; NPrPhe(4-Me) = CCCN[C@@H](Cc1ccc(C)cc1)C(=O)O; NMePhe(4-Me) = CN[C@@H](Cc1ccc(C)cc1)C(=O)O; NMeGly(cPent) = CN[C@H](C(=O)O)C1CCCC1; NMeNva(3-Et) = CCC(CC)[C@H](NC)C(=O)O; αMeCha = C[C@](N)(CC1CCCCC1)C(=O)O; NMeD = CN[C@@H](CC(=O)O)C(=O)O; NMeL = CN[C@@H](CC(C)C)C(=O)O; Morpholide = C1CN(*)CCO1; NMeA = CN[C@@H](C)C(=O)O; Ac5c = NC1(C(=O)O)CCCC1; Aze = O=C(O)[C@@H]1CCN1; Ac4c = NC1(C(=O)O)CCC1; NBuGly = CCCCNCC(=O)O; NEtG = CCNCC(=O)O; Sar = CNCC(=O)O

Experiment [1] addresses GDP-bound NRAS wild-type protein (Homo sapiens, UniProt P01111). Nature of the experiment: Binding to NRAS by surface plasmon resonance (SPR), Single Cycle Kinetics. The note with it: SPR; for NRAS/KRAS (ratio of KD value for NRAS to KD value for KRAS): GDP-bound NRAS wild-type vs GDP-bound KRAS wild-type.
Experiment [2] concerns the target GDP-bound HRAS wild-type protein (Homo sapiens, UniProt P01112). Nature of the experiment: Binding to HRAS by surface plasmon resonance (SPR), Single Cycle Kinetics. The note with it: SPR; for HRAS/KRAS (ratio of KD value for HRAS to KD value for KRAS): GDP-bound HRAS wild-type vs GDP-bound KRAS wild-type.

Sequence of GDP-bound HRAS wild-type protein (P01112 whole entry): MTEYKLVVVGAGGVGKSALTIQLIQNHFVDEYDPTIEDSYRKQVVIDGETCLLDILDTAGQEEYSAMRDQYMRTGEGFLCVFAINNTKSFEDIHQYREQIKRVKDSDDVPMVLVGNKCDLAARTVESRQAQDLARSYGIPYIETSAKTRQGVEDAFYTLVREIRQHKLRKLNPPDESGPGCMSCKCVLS
Sequence of GDP-bound NRAS wild-type protein (P01111 whole entry): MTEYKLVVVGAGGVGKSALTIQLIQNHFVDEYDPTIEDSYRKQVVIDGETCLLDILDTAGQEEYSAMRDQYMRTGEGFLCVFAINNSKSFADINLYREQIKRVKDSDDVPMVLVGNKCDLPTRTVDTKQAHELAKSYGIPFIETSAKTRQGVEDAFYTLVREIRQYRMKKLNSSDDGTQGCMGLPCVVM

`CCCN1C(=O)[C@@H]2CCN2C(=O)[C@H](C)N(C)C(=O)[C@H]([C@@H](C)CC)NC(=O)[C@H](CC(C)C)N(C)C(=O)C[C@@H](C(=O)N2CCOCC2)N(C)C(=O)[C@H](C2CCCC2)N(C)C(=O)C2(CCCC2)NC(=O)[C@@H]2CCCN2C(=O)[C@H](CCc2ccc(C(F)(F)F)c(Cl)c2)NC(=O)CN(CC)C(=O)[C@@H]1Cc1ccc(C)cc1` [PP0058] ([NMeL]I[NMeA][Aze][NPrPhe(4-Me)][NEtG][hPhe(3-Cl-4-CF3)]P[Ac5c][NMeGly(cPent)][NMeD]-Morpholide; lactam N-11): in experiment [1], the “NRAS/KRAS (ratio of KD for GDP-bound NRAS wild-type to KD for KRAS)” value was “C (A compound having a KD ratio of 0.1 or more and less than 3 is denoted as C)”. In addition, in experiment [2], the “HRAS/KRAS (ratio of KD for GDP-bound HRAS wild-type to KD for KRAS)” value is “C (A compound having a KD ratio of 0.1 or more and less than 3 is denoted as C)”.
`CCO[C@@H]1C[C@H]2C(=O)NC3(CCCC3)C(=O)N(C)[C@@H](C3CCCC3)C(=O)N(C)[C@H](C(=O)N(C)C)CC(=O)N(C)[C@@H](C)C(=O)N[C@@H]([C@@H](C)CC)C(=O)N(C)CC(=O)N(C)[C@H]3CCCCCN(C3=O)[C@@H](Cc3ccc(C(F)(F)F)cc3)C(=O)N(C)CC(=O)N[C@@H](CCc3cc(F)c(C(F)(F)F)c(F)c3)C(=O)N2C1` [PP0475]: the “NRAS/KRAS (ratio of KD value with respect to GDP-bound NRAS wild-type protein to KD value with respect to KRAS)” value in experiment [1] was “B (a compound having 3 or more and less than 10 is denoted as B)”. In addition, the “HRAS/KRAS (ratio of KD value with respect to GDP-bound HRAS wild-type protein to KD value with respect to KRAS)” value in experiment [2] was “B (a compound having 3 or more and less than 10 is denoted as B)”.
With `CC[C@H](C)[C@@H]1NC(=O)[C@H](CC)N(C)C(=O)C[C@@H](C(=O)N(C)C)N(C)C(=O)[C@H](C2CCCC2)N(C)C(=O)C2(CCCC2)N(C)C(=O)[C@@H]2CCCN2C(=O)[C@H](CCc2cc(F)c(C(F)(F)F)c(F)c2)NC(=O)CN(C)C(=O)[C@H](Cc2ccc(C(F)(F)F)cc2)N2CC/C=C\C[C@@H](C2=O)N(C)C(=O)CN(C)C1=O` [PP1805], the “NRAS/KRAS (ratio of KD value for NRAS to KD value for KRAS)” value in experiment [1] was “A (a compound having 10 or more and less than 20 is denoted as A)”. In addition, the “HRAS/KRAS (ratio of KD value for HRAS to KD value for KRAS)” value in experiment [2] is “A (a compound having 10 or more and less than 20 is denoted as A)”.
For the molecule `CCCN1C(=O)CN(C)C(=O)CN(C)C(=O)[C@H]([C@@H](C)CC)NC(=O)[C@H](CC(C)C)N(C)C(=O)C[C@@H](C(=O)N2CCOCC2)N(C)C(=O)[C@H](C(CC)CC)N(C)C(=O)C2(CCC2)NC(=O)[C@@H]2CCCN2C(=O)[C@H](CCc2ccc(C(F)(F)F)c(Cl)c2)NC(=O)CN(C)C(=O)[C@@H]1Cc1ccc(C(F)(F)F)cc1` [PP1958] ([NMeL]I[Sar][Sar][NPrPhe(4-CF3)][Sar][hPhe(3-Cl-4-CF3)]P[Ac4c][NMeNva(3-Et)][NMeD]-Morpholide; lactam N-11), the “NRAS/KRAS (ratio of KD value for NRAS to KD value for KRAS)” value in experiment [1] is “B (a compound having 3 or more and less than 10 is denoted as B)”. Moreover, the “HRAS/KRAS (ratio of KD value for HRAS to KD value for KRAS)” value in experiment [2] is “B (a compound having 3 or more and less than 10 is denoted as B)”.
Consider `CCCN1C(=O)CN(C)C(=O)CN(C)C(=O)[C@H]([C@@H](C)CC)NC(=O)[C@H](CC(C)C)N(C)C(=O)C[C@@H](C(=O)N2CCOCC2)N(C)C(=O)[C@H](C2CCCC2)N(C)C(=O)[C@](C)(CC2CCCCC2)NC(=O)[C@@H]2CCCN2C(=O)[C@H](CCc2cc(F)c(C(F)(F)F)c(F)c2)NC(=O)CN(C)C(=O)[C@@H]1Cc1ccc(C(F)(F)F)cc1` [PP0760] ([NMeL]I[Sar][Sar][NPrPhe(4-CF3)][Sar][hPhe(3,5-F2-4-CF3)]P[αMeCha][NMeGly(cPent)][NMeD]-Morpholide; lactam N-11), for which the “NRAS/KRAS (ratio of KD value with respect to GDP-bound NRAS wild-type protein to KD value with respect to KRAS)” value in experiment [1] was “B (a compound having 3 or more and less than 10 is denoted as B)”. Besides, in experiment [2], the “HRAS/KRAS (ratio of KD value with respect to GDP-bound HRAS wild-type protein to KD value with respect to KRAS)” value was “C (A compound having a KD ratio of 0.1 or more and less than 3 is denoted as C)”.
As to `CC[C@H](C)[C@@H]1NC(=O)[C@H](CC(C)C)N(C)C(=O)C[C@@H](C(=O)N2CCOCC2)N(C)C(=O)[C@H](C2CCCC2)N(C)C(=O)C2(CCCC2)NC(=O)[C@@H]2CCCN2C(=O)[C@H](CCc2ccc(C(F)(F)F)c(Cl)c2)NC(=O)CN(C)C(=O)[C@H](Cc2ccc(C)cc2)N(CC2CCC2)C(=O)CN(C)C(=O)CN(C)C1=O` [PP0095] ([NMeL]I[Sar][Sar][X43][Sar][hPhe(3-Cl-4-CF3)]P[Ac5c][NMeGly(cPent)][NMeD]-Morpholide; lactam N-11), in experiment [1], the “NRAS/KRAS (ratio of KD for GDP-bound NRAS wild-type to KD for KRAS)” value was “C (A compound having a KD ratio of 0.1 or more and less than 3 is denoted as C)”. Besides, in experiment [2], the “HRAS/KRAS (ratio of KD for GDP-bound HRAS wild-type to KD for KRAS)” value was “C (A compound having a KD ratio of 0.1 or more and less than 3 is denoted as C)”.
Consider `CCCCN1CC(=O)N(C)[C@@H](Cc2ccc(C)cc2)C(=O)N(C)CC(=O)N[C@@H](CCc2ccc(C(F)(F)F)c(Cl)c2)C(=O)N2CCC[C@H]2C(=O)NC2(CCCC2)C(=O)N(C)[C@@H](C2CCCC2)C(=O)N(C)[C@H](C(=O)N2CCOCC2)CC(=O)N(C)[C@@H](CC(C)C)C(=O)N[C@@H]([C@@H](C)CC)C(=O)N(C)CC1=O` [PP0021] ([NMeL]I[Sar][NBuGly][NMePhe(4-Me)][Sar][hPhe(3-Cl-4-CF3)]P[Ac5c][NMeGly(cPent)][NMeD]-Morpholide; lactam N-11), for which the “NRAS/KRAS (ratio of KD for GDP-bound NRAS wild-type to KD for KRAS)” value in experiment [1] is “C (A compound having a KD ratio of 0.1 or more and less than 3 is denoted as C)”. The “HRAS/KRAS (ratio of KD for GDP-bound HRAS wild-type to KD for KRAS)” value in experiment [2] was “C (A compound having a KD ratio of 0.1 or more and less than 3 is denoted as C)”.

The values are drawn from patent publication US20250230193A1, “CYCLIC COMPOUND HAVING SELECTIVE KRAS INHIBITORY EFFECT ON HRAS AND NRAS” (CHUGAI SEIYAKU KABUSHIKI KAISHA, priority 2022, published 2025).
